In ChEMBL document CHEMBL3046044, “Evaluation of mefenamic acid mutual prodrugs” (Med Chem Res, 2013):

Experiments:
[1] = Half life in hydrochloric acid buffer at 10 mg at pH 1.2; type: physicochemical
Rattus norvegicus [2] = test: Antioxidant activity in Rattus norvegicus (rat) stomach assessed as reduction of lipid peroxidation measured MDA level per mg of protein at 800 mg/kg, po after 12 hr by TBARS assay (reference value: 4.388 +/- 0.404 nM); type: functional
Mus musculus = test: Analgesic activity in po dosed Mus musculus Swiss albino (mouse) assessed as inhibition of acetic acid-induced writhing administered 1 hr prior to acetic acid challenge measured for 20 min relative to control; type: functional
Rattus norvegicus [3] = test: Anti-inflammatory activity in Rattus norvegicus Wistar albino (rat) assessed as inhibition of carrageenan-induced paw edema at 126 mg/kg, po measured at 3 hr relative to control; type: functional
[4] = Solubility of the compound in methanol at 10 mg; type: physicochemical
[5] = Solubility of the compound in ethanol at 10 mg; type: physicochemical
Rattus norvegicus [6] = test: Increase in hexosamine level in Rattus norvegicus (rat) stomach at 1260 mg/kg, po after 12 hr (reference value: 122.323 +/- 4.639 ug/ml); type: functional
Rattus norvegicus [7] = test: Reduction of gastric wall mucus level in Rattus norvegicus (rat) stomach measured per mg of protein at 1260 mg/kg, po after 12 hr by alcian blue staining (reference value: 285.680 +/- 3.348 ug); type: functional
Rattus norvegicus [8] = test: Inhibition of superoxide dismutase level in Rattus norvegicus (rat) stomach at 1260 mg/kg, po after 12 hr (reference value: 37.096 +/- 7.335%); type: functional
[9] = Half life in Homo sapiens (human) 80% plasma at 10 mg at pH 7.4; type: ADME, cell-free; conditions: 80% human plasma
[10] = Solubility of the compound in 0.1 N sodium hydroxide at 10 mg; type: physicochemical
Rattus norvegicus [11] = test: Ulcerogenicity in Rattus norvegicus (rat) stomach assessed as ulcer index at 1260 mg/kg, po after 12 hr (reference value: 3.413 +/- 2.160 no unit); type: toxicity, organism-based; design: dose 1260 mg/kg, route oral; conditions: in vivo
Rattus norvegicus [12] = test: Anti-inflammatory activity in Rattus norvegicus Wistar albino (rat) assessed as inhibition of carrageenan-induced paw edema at 126 mg/kg, po measured at 24 hr relative to control; type: functional
[13] = Solubility of the compound in benzene at 10 mg; type: physicochemical
[14] = Solubility of the compound in dichloromethane at 10 mg; type: physicochemical
Rattus norvegicus [15] = test: Effect on protein level in Rattus norvegicus (rat) stomach at 1260 mg/kg, po after 12 hr by Bradford method (reference value: 42.5 +/- 5.773 ug/ml); type: functional
[16] = Solubility of the compound in 0.1 N hydrochloric acid at 10 mg; type: physicochemical
Rattus norvegicus [17] = test: Anti-inflammatory activity in Rattus norvegicus Wistar albino (rat) assessed as inhibition of carrageenan-induced paw edema at 126 mg/kg, po measured at 4 hr relative to control; type: functional
[18] = Half life in isotonic phosphate buffer at 10 mg at pH 7.4; type: physicochemical
[19] = n-Octanol-phosphate buffer partition coefficient, log P of the compound at pH 7.4 by HPLC method; type: physicochemical
Rattus norvegicus [20] = test: Antioxidant activity in Rattus norvegicus (rat) stomach assessed as effect on catalase level measured per mg of protein at 1260 mg/kg, po after 12 hr by spectrophotometric analysis (reference value: 26.055 +/- 4.669 U); type: functional
Rattus norvegicus [21] = test: Anti-inflammatory activity in Rattus norvegicus Wistar albino (rat) assessed as inhibition of carrageenan-induced paw edema at 126 mg/kg, po measured at 6 hr relative to control; type: functional
[22] = Solubility of the compound in chloroform at 10 mg; type: physicochemical
Rattus norvegicus [23] = test: Antioxidant activity in Rattus norvegicus (rat) stomach assessed as effect on GSH level measured per 100 g of protein at 1260 mg/kg, po after 12 hr by Ellman's method (reference value: 350.735 +/- 42.887 uM); type: functional
Rattus norvegicus [24] = test: Antioxidant activity in Rattus norvegicus (rat) stomach assessed as effect on catalase level measured per mg of protein at 1240 mg/kg, po after 12 hr by spectrophotometric analysis (reference value: 26.055 +/- 4.669 U); type: functional
Rattus norvegicus [25] = test: Anti-inflammatory activity in Rattus norvegicus Wistar albino (rat) assessed as inhibition of carrageenan-induced paw edema at 124 mg/kg, po measured at 6 hr relative to control; type: functional
Rattus norvegicus [26] = test: Effect on protein level in Rattus norvegicus (rat) stomach at 1240 mg/kg, po after 12 hr by Bradford method (reference value: 42.5 +/- 5.773 ug/ml); type: functional
Rattus norvegicus [27] = test: Inhibition of superoxide dismutase level in Rattus norvegicus (rat) stomach at 1240 mg/kg, po after 12 hr (reference value: 37.096 +/- 7.335%); type: functional
Rattus norvegicus [28] = test: Antioxidant activity in Rattus norvegicus (rat) stomach assessed as reduction of lipid peroxidation measured MDA level per mg of protein at 1260 mg/kg, po after 12 hr by TBARS assay (reference value: 4.388 +/- 0.404 nM); type: functional
Rattus norvegicus [29] = test: Anti-inflammatory activity in Rattus norvegicus Wistar albino (rat) assessed as inhibition of carrageenan-induced paw edema at 124 mg/kg, po measured at 4 hr relative to control; type: functional
Rattus norvegicus [30] = test: Ulcerogenicity in Rattus norvegicus (rat) stomach assessed as ulcer index at 1240 mg/kg, po after 12 hr (reference value: 3.413 +/- 2.160 no unit); type: toxicity, organism-based; design: dose 1240 mg/kg, route oral; conditions: in vivo
Rattus norvegicus [31] = test: Reduction of gastric wall mucus level in Rattus norvegicus (rat) stomach measured per mg of protein at 1240 mg/kg, po after 12 hr by alcian blue staining (reference value: 285.680 +/- 3.348 ug); type: functional
Rattus norvegicus [32] = test: Increase in hexosamine level in Rattus norvegicus (rat) stomach at 1240 mg/kg, po after 12 hr (reference value: 122.323 +/- 4.639 ug/ml); type: functional
Rattus norvegicus [33] = test: Anti-inflammatory activity in Rattus norvegicus Wistar albino (rat) assessed as inhibition of carrageenan-induced paw edema at 124 mg/kg, po measured at 24 hr relative to control; type: functional
Rattus norvegicus [34] = test: Antioxidant activity in Rattus norvegicus (rat) stomach assessed as effect on GSH level measured per 100 g of protein at 1240 mg/kg, po after 12 hr by Ellman's method (reference value: 350.735 +/- 42.887 uM); type: functional
Rattus norvegicus [35] = test: Anti-inflammatory activity in Rattus norvegicus Wistar albino (rat) assessed as inhibition of carrageenan-induced paw edema at 124 mg/kg, po measured at 3 hr relative to control; type: functional
Rattus norvegicus [36] = test: Anti-inflammatory activity in Rattus norvegicus Wistar albino (rat) assessed as inhibition of carrageenan-induced paw edema at 80 mg/kg, po measured at 3 hr relative to control; type: functional
Rattus norvegicus [37] = test: Anti-inflammatory activity in Rattus norvegicus Wistar albino (rat) assessed as inhibition of carrageenan-induced paw edema at 80 mg/kg, po measured at 4 hr relative to control; type: functional
Rattus norvegicus [38] = test: Inhibition of superoxide dismutase level in Rattus norvegicus (rat) stomach at 800 mg/kg, po after 12 hr (reference value: 37.096 +/- 7.335%); type: functional
Rattus norvegicus [39] = test: Anti-inflammatory activity in Rattus norvegicus Wistar albino (rat) assessed as inhibition of carrageenan-induced paw edema at 80 mg/kg, po measured at 24 hr relative to control; type: functional
Rattus norvegicus [40] = test: Reduction of gastric wall mucus level in Rattus norvegicus (rat) stomach measured per mg of protein at 800 mg/kg, po after 12 hr by alcian blue staining (reference value: 285.680 +/- 3.348 ug); type: functional
Rattus norvegicus [41] = test: Antioxidant activity in Rattus norvegicus (rat) stomach assessed as reduction of lipid peroxidation measured MDA level per mg of protein at 1240 mg/kg, po after 12 hr by TBARS assay (reference value: 4.388 +/- 0.404 nM); type: functional
Rattus norvegicus [42] = test: Effect on protein level in Rattus norvegicus (rat) stomach at 800 mg/kg, po after 12 hr by Bradford method (reference value: 42.5 +/- 5.773 ug/ml); type: functional
Rattus norvegicus [43] = test: Increase in hexosamine level in Rattus norvegicus (rat) stomach at 800 mg/kg, po after 12 hr (reference value: 122.323 +/- 4.639 ug/ml); type: functional
Rattus norvegicus [44] = test: Antioxidant activity in Rattus norvegicus (rat) stomach assessed as effect on GSH level measured per 100 g of protein at 800 mg/kg, po after 12 hr by Ellman's method (reference value: 350.735 +/- 42.887 uM); type: functional
Rattus norvegicus [45] = test: Ulcerogenicity in Rattus norvegicus (rat) stomach assessed as ulcer index at 800 mg/kg, po after 12 hr (reference value: 3.413 +/- 2.160 no unit); type: toxicity, organism-based; design: dose 800 mg/kg, route oral; conditions: in vivo
Rattus norvegicus [46] = test: Anti-inflammatory activity in Rattus norvegicus Wistar albino (rat) assessed as inhibition of carrageenan-induced paw edema at 80 mg/kg, po measured at 6 hr relative to control; type: functional
Rattus norvegicus [47] = test: Antioxidant activity in Rattus norvegicus (rat) stomach assessed as effect on catalase level measured per mg of protein at 800 mg/kg, po after 12 hr by spectrophotometric analysis (reference value: 26.055 +/- 4.669 U); type: functional

SMILES: Cc1cccc(Nc2ccccc2C(=O)OC2CC(C)CCC2C(C)C)c1C (stereo not drawn) [Mefenamic acid-menthol]
- half-life [1]: 20.8 h
- Activity (Rattus norvegicus [2]): 16.056 nM
- inhibition (INH) (Mus musculus): 55.184%
- inhibition in vivo at 126 mg/kg (Rattus norvegicus [3]): 41.7%
- solubility [4]: soluble
- solubility [5]: soluble
- Activity (Rattus norvegicus [6]): 144.445 µg/mL
- Activity (Rattus norvegicus [7]): 227.7692 µg
- inhibition in vivo at 1260 mg/kg (Rattus norvegicus [8]): 29.2%
- half-life [9]: 1.43 h
- solubility [10]: soluble
- UI (Rattus norvegicus [11]): 5.117
- inhibition in vivo at 126 mg/kg (Rattus norvegicus [12]): 67.1%
- solubility [13]: soluble
- solubility [14]: soluble
- Activity (Rattus norvegicus [15]): 32.083 µg/mL
- solubility [16]: Insoluble
- inhibition in vivo at 126 mg/kg (Rattus norvegicus [17]): 44.1%
- half-life [18]: 8.87 h
- logD [19]: 4.98
- Activity (Rattus norvegicus [20]): 23.807 U
- inhibition in vivo at 126 mg/kg (Rattus norvegicus [21]): 51.6%
- solubility [22]: soluble
- Activity (Rattus norvegicus [23]): 261.03 µM

SMILES: Cc1ccc(C(C)C)c(OC(=O)c2ccccc2Nc2cccc(C)c2C)c1
- half-life [1]: 23.1 h
- inhibition (INH) (Mus musculus): 52.722%
- Activity (Rattus norvegicus [24]): 23.089 U
- inhibition in vivo at 124 mg/kg (Rattus norvegicus [25]): 51%
- solubility [4]: soluble
- Activity (Rattus norvegicus [26]): 42.917 µg/mL
- inhibition in vivo at 1240 mg/kg (Rattus norvegicus [27]): 33.3%
- Activity (Rattus norvegicus [28]): 13.972 nM
- solubility [5]: soluble
- inhibition in vivo at 124 mg/kg (Rattus norvegicus [29]): 41.7%
- UI (Rattus norvegicus [30]): 6.833
- half-life [9]: 1.14 h
- solubility [10]: soluble
- Activity (Rattus norvegicus [31]): 190.256 µg
- solubility [13]: soluble
- solubility [14]: soluble
- Activity (Rattus norvegicus [32]): 151.249 µg/mL
- solubility [16]: Insoluble
- inhibition in vivo at 124 mg/kg (Rattus norvegicus [33]): 62.4%
- half-life [18]: 7.11 h
- logD [19]: 5.45
- solubility [22]: soluble
- Activity (Rattus norvegicus [34]): 286.765 µM
- inhibition in vivo at 124 mg/kg (Rattus norvegicus [35]): 37.8%

SMILES: Cc1cccc(Nc2ccccc2C(=O)O)c1C [MEFENAMIC ACID]
- inhibition in vivo at 80 mg/kg (Rattus norvegicus [36]): 48.8%
- inhibition in vivo at 80 mg/kg (Rattus norvegicus [37]): 50.6%
- inhibition in vivo at 800 mg/kg (Rattus norvegicus [38]): 24.2%
- inhibition (INH) (Mus musculus): 63.321%
- inhibition in vivo at 80 mg/kg (Rattus norvegicus [39]): 69.1%
- Activity (Rattus norvegicus [40]): 170.026 µg
- Activity (Rattus norvegicus [41]): 26.25 nM
- solubility [4]: soluble
- Activity (Rattus norvegicus [42]): 12.083 µg/mL
- Activity (Rattus norvegicus [43]): 139.224 µg/mL
- solubility [5]: soluble
- Activity (Rattus norvegicus [44]): 413.603 µM
- solubility [10]: soluble
- solubility [13]: soluble
- solubility [14]: soluble
- solubility [16]: Insoluble
- solubility [22]: soluble
- UI (Rattus norvegicus [45]): 10.867
- inhibition in vivo at 80 mg/kg (Rattus norvegicus [46]): 64.1%
- Activity (Rattus norvegicus [47]): 4.587 U
